Values of other authors as cited in patent US20100099775A1, “METHOD FOR AMELIORATING OF POST-ANESTHETIC RECOVERY” (ALPHARX INC., priority 2008, published 2010).

How the values were obtained:
patients = settings: 5 mg/kg daily for 4-9 months; three patients
[1] = tested on: Friedreich's Ataxia patients; settings: oral 5 mg/kg daily for 8 weeks
[2] = tested on: cultured cortical neurons; settings: also when applied 30 min after the NMDA pulse
[3] = tested on: patients with cerebrovascular disease; settings: 90 mg daily; nine patients

## COC1=C(OC)C(=O)C(CCCCCCCCCCO)=C(C)C1=O [Idebenone, 2,3-dimethoxy-5-methyl-6-(10-hydroxydecyl)-1,4 benzoquinone]
Fixed oils (soy, corn, almond, etc.)
  Solubility in fixed oils: low
water
  water solubility: Low
patients
  left ventricular enlargement: reduction
[1]
  marker of oxidative DNA damage: significantly decreased
[2]
  protection of cortical neurons against necrotic degeneration: rescued cortical neurons
[3]
  EEG and clinical symptoms: improvements
